Measured values: the NIST ThermoML archive (doi:10.1016/j.jct.2008.09.002)
Numbers after ± are expanded uncertainties.

Assay: molar heat capacity at constant pressure; xn = mol fraction of the nth substance listed
Conditions: 101.3 kPa, Liquid, Small sample (50 mg) DSC

CCCCn1cc[n+](C)c1.COS(=O)(=O)[O-] [1-butyl-3-methylimidazolium methyl sulfate] + C[N+](=O)[O-]
molar heat capacity at constant pressure [J/K/mol]
Conditions | 293.15 K | 298.15 K | 303.15 K | 308.15 K | 313.15 K | 318.15 K
x1 = 0.0522 | 122.1 ± 1.9 | 122.4 ± 1.9 | 122.8 ± 1.9 | 123.3 ± 1.9 | 123.8 ± 1.9 | 124.2 ± 1.9
x1 = 0.1 | 136.5 ± 2.1 | 137 ± 2.1 | 137.5 ± 2.1 | 138.1 ± 2.1 | 138.7 ± 2.2 | 139.1 ± 2.2
x1 = 0.1966 | 166.4 ± 2.6 | 167 ± 2.6 | 167.7 ± 2.6 | 168.4 ± 2.6 | 169.1 ± 2.6 | 169.7 ± 2.6
x1 = 0.3059 | 200.5 ± 3.1 | 201.3 ± 3.1 | 202.3 ± 3.1 | 203.2 ± 3.1 | 204.1 ± 3.2 | 205 ± 3.2
x1 = 0.4061 | 231.4 ± 3.6 | 232.5 ± 3.6 | 233.6 ± 3.6 | 234.8 ± 3.6 | 235.9 ± 3.7 | 237 ± 3.7
x1 = 0.5025 | 261.5 ± 4.1 | 262.7 ± 4.1 | 263.9 ± 4.1 | 265.1 ± 4.1 | 266.3 ± 4.1 | 267.4 ± 4.1
x1 = 0.5889 | 288 ± 4.5 | 289.4 ± 4.5 | 290.9 ± 4.5 | 292.4 ± 4.5 | 293.8 ± 4.6 | 295.3 ± 4.6
x1 = 0.6844 | 317.2 ± 4.9 | 318.9 ± 4.9 | 320.6 ± 5 | 322.2 ± 5 | 323.9 ± 5 | 325.6 ± 5
x1 = 0.7832 | 347.4 ± 5.4 | 349.2 ± 5.4 | 351.1 ± 5.4 | 352.9 ± 5.5 | 354.7 ± 5.5 | 356.5 ± 5.5
x1 = 0.8654 | 372.6 ± 5.8 | 374.6 ± 5.8 | 376.7 ± 5.8 | 378.7 ± 5.9 | 380.8 ± 5.9 | 382.8 ± 5.9
x1 = 0.9289 | 392.1 ± 6.1 | 394.3 ± 6.1 | 396.5 ± 6.1 | 398.7 ± 6.2 | 400.8 ± 6.2 | 403 ± 6.2
